Data from patent US20170014472A1, “ATTENUATION OF INTRAPULMONARY INFLAMMATION” (APEPTICO FORSCHUNG UND E[…], priority 2014, published 2017).
“And” between values parts separate entries of the source, which are not always exact repeats. Equal values may be shown once. Read-outs that look alike come from different tables or passages of the source.

Assays:
Format in all cases: in vivo, pig
[1] = tested on: porcine model of lipopolysaccharide (LPS)-induced sepsis; conditions: for CO (cardiac output) / CVP (central venous pressure) / EVLW (extravascular lung water content) / MAP (mean arterial pressure) / MPAP (mean pulmonary arterial pressure) / NA (noradrenaline dosage required for hemodynamic stability) / PaCO2 (arterial partial pressure of carbon dioxide) / Pendinsp (end-inspiratory pressure) / RR (respiratory rate): median
Method: Following animal care committee approval (Landesuntersuchungsamt Rheinland-Pfalz, Koblenz, Germany; approval number 23 177-07/G12-1-058) 18 juvenile pigs (weight 25-27 kg) were examined in a randomized, investigator-blinded setting.
After sedation with intramuscular injection of ketamine (8 mg kg^−1) and midazolam (0.2 mg kg^−1) and preparation of vascular access, anesthesia was induced and maintained by intravenous propofol and fentanyl administration (8-12 mg kg^−1 h^−1/0.1-0.2 mg h^−1). A single dose of atracurium (0.5 mg kg^−1) was applied to facilitate orotracheal intubation. Ventilation (Respirator: AVEA®, CareFusion, USA) was started in pressure-controlled mode with a tidal volume of (Vt) of 8 mL kg^−1, positive end-expiratory pressure (PEEP) of 5 cmH2O, FiO2 of 0.3-0.4 and a variable respiratory rate to maintain normocapnia. A balanced saline solution (Sterofundin iso, B. Braun, Germany) was continuously infused at a rate of 10 mL kg^−1h^−1. Vascular catheters were placed ultrasound-guided in Seldinger's technique and under sterile conditions: an arterial line, a pulse contour cardiac output catheter (PiCCO, Pulsion Medical Systems, Germany) and central venous line were inserted via femoral vein access. A 7.5-French introducer for a pulmonary artery catheter was placed via the right internal jugular vein. Ventilatory and extended hemodynamic parameters were recorded continuously (Datex S/5, GE Healthcare, Germany). Body temperature was measured by a rectal probe and normothermia was maintained by body surface warming
(§1) Following instrumentation baseline parameters were assessed at healthy state. FIG. 1 summarizes the experimental protocol: systemic inflammation was induced by continuous LPS infusion (Escherichia coli serotype O111:B4, Sigma-Aldrich, Switzerland) for one hour at 100 μg kg^−1 h^−1, followed by 10 μg kg^−1h^−1 for the entire experiment. Initial high-dose infusion was combined with a non-protective ventilation setting (Vt 25 mL kg^−1, zero PEEP, FiO2 1.0) to add a VILI component. Afterwards the ventilation mode was switched to a more lung protective setting: Vt of 8 mL kg^−1, PEEP 5 cm H2O, FiO2 of 0.4-0.5, and a variable respiratory rate to maintain a pH>7.2. The animals were monitored over six hours after sepsis induction. During the induction phase a non-participant randomized the animals into two groups and prepared the peptide solution as previously described (Hartmann E K et al, Acta anaesthesiologica Scandinavica 2013, 57(3):334-341) for blinded endotracheal inhalation.
(§2) Group (1) animals, to which 1 mg kg^−1 of a compound of formula I of the amino acid sequence SEQ ID NO:5 was administered at zero and three hours;
To maintain hemodynamic stability (mean arterial pressure >60 mmHg) additional fluid boli were administered (150 ml of balanced saline or hydroxyethyl starch once every hour). Persisting instability was treated by continuous central venous noradrenaline infusion. At the end of the experiments the animals were killed in deep general anesthesia by intravenous injection of propofol (200 mg) and potassium chloride (40 mval).
(§3) Data are expressed as median and interquartile range (IQR) respectively box-plots. Intergroup comparisons were tested with the Mann-Whitney-U-Test. If multiple testing was performed, P values were adjusted by the Bonferroni correction. Intragroup time courses of repetitively measured parameters were analyzed by Friedman ANOVA on ranks and post-hoc Student-Newman-Keuls-Test. P values below 0.05 were regarded as significant. Physiological data (ventilator and hemodynamic data) as set out in Table 1 were analyzed in explorative manner only. The statistical software SigmaPlot 11.0 (Systat Inc., USA) was used.

[2] = tested on: intrapulmonary mRNA of IL-1β, IL-6, TNF-α, COX-2, iNOS, amphiregulin, tenascin-c; experiment: Intrapulmonary mRNA quantification (real-time PCR, normalized to PPIA) in lung tissue of LPS-septic pigs
Method: as §1, §2
To determine intrapulmonary inflammation mRNA levels of pro-inflammatory cytokines interleukin-1β (IL-1β), interleukin-6 (IL-6), TNF-α, and enzymes prostaglandin G/H synthase-2 (COX-2) and inducible nitric oxide synthase (iNOS) were quantified. Amphiregulin and tenascin-c expression levels were examined as surrogates of mechanical stress and remodeling. Four representative samples from the left lung (upper/lower lobe, each dependent/non-dependent) were collected, snap frozen in liquid nitrogen and stored at −80° C. RNA extraction and quantification procedure by real-time polymerase chain reaction (Lightcycler 480 PCR System, Roche Applied Science, Germany) was conducted as previously described in detail.[17-19] mRNA expression data were normalized against peptidylprolyl isomerase A (PPIA) as control gene.
as §3

[3] = tested on: plasma IL-6 and TNF-α; experiment: Plasma levels of IL-6 and TNF-α by ELISA in LPS-septic pigs; conditions: vs CTRL; repetitive inhalation; compared with the effect on pulmonary expression
Method: as §1, with “During the induction phase a non-participant randomized the animals into two groups and prepared the peptide solution as previously described (Hartmann E K et al, Acta anaesthesiologica Scandinavica 2013, 57(3):334-341) for blinded endotracheal inhalation.” left out
Blood gas values were obtained using a Rapidlab 248 device (Bayer Healthcare, Germany) Hematological parameters were sampled during baseline, sepsis induction and after three and six hours. Lactate plasma levels, leucocyte and platelet counts were analyzed by the Institute of Laboratory Medicine, Medical Center of the Johannes Gutenberg-University. The plasma levels of IL-6 and TNF-α were determined by quantifying enzyme linked immunosorbent assays according to the manufacturer's instructions (Porcine IL-6 Quantikine ELISA, Porcine TNF-α Quantikine ELISA, R&D Systems, Germany).

[4] = tested on: LPS-induced lung injury; experiment: Post-mortem macroscopic and histopathological lung injury scoring and lung wet to dry ratio in LPS-septic pigs; conditions: for hemorrhage, histopathological score / alveolar edema, histopathological score / epithelial destruction, histopathological score / inflammatory infiltration, histopathological score / interstitial edema, histopathological score / microatelectasis, histopathological score / overdistension, histopathological score: post-mortem at 6 h, median (IQR); for hemorrhage, histopathological score: 0 to 5 points, CTRL higher, P<0.05 vs. Group (1); for alveolar edema, histopathological score / epithelial destruction, histopathological score / inflammatory infiltration, histopathological score / interstitial edema, histopathological score / microatelectasis, histopathological score / overdistension, histopathological score: severity 0 to 5 points
Method: as §1, §2
The lungs were removed en-bloc after thoracotomy. A macroscopic lung injury score was assessed as previously described in detail (Lim C M et al, Lung 2003, 181(1):23-34). Four ventral and dorsal segments (each upper/lower right, upper/lower left) of the lung surface were examined for hemorrhage and congestion (2 points>50%, 1 point for<50%, 0 points for no or minimal changes). The right lung was fixed in 10% buffered formalin. Representative tissue samples were paraffin embedded and cut for hematoxylin and eosin staining A blinded investigator under supervision of a senior pathologist performed the histopathological assessment. In different lung regions (non-dependent periphery and bronchial, dependent periphery and bronchial) morphological changes were rated for seven criteria (alveolar edema, interstitial edema, hemorrhage, inflammatory infiltration, epithelial damage, microatelectasis and overdistension). The severity of each parameter ranged from 0 (no occurrence) to 5 points (complete field). For every lung region we used the mean value of four non-overlapping microscopy fields. The sum of the regional scores in all lung regions adds to a maximum injury score of 140 points (7 parameters×5 maximum points per parameter from 4 lung regions). Additionally the regional distribution of each parameter was assessed in the dependent versus non-dependent lung regions. Similar scoring procedures were described previously (Spieth P M et al, Intensive Care Med 2007, 33(2):308-314; Wang H M et al, Eur Surg Res 2010, 45(3-4):121-133).The left lung was weighted immediately after removal and dried afterwards at 60° C. for 72 hours to determine the dry weight and wet to dry ratio (W/D).
as §3

[5] = 3 h, 1 mg kg^−1 inhaled at zero and three hours
[6] = 6 h, 1 mg kg^−1 inhaled at zero and three hours
[7] = Baseline, before LPS and inhalation
[8] = Sepsis/VILI induction, before first inhalation
[9] = vs CTRL, lung tissue at 6 h, 1 mg kg^−1 inhaled at zero and three hours

For “Cyclo(4-aminobutanoic acid-GQRETPEGAEAKPWYD) (XGQRETPEGAEAKPWYD; cyclized via N-terminal 4-aminobutanoic acid to Asp side chain; cyclized compound for use in inflammation) [SEQ ID NO:5, amide bond between amino group of N-terminal 4-aminobutanoic acid and β-carboxyl side chain of C-terminal aspartic acid]”, the “CO (cardiac output)” value [1, 5] was 3.2 L/min, the “CVP (central venous pressure)” value [1, 5] was 11 mmHg and the “EVLW (extravascular lung water content)” value [1, 5] was 12 mL/kg. For the same substance, the “MAP (mean arterial pressure)” value [1, 5] was 61 mmHg, the “MPAP (mean pulmonary arterial pressure)” value [1, 5] was 33 mmHg and the “NA (noradrenaline dosage required for hemodynamic stability)” value [1, 5] was 0.2 µg/kg/min. For the same substance, the “PaCO2 (arterial partial pressure of carbon dioxide)” value (from here on “PaCO2”) [1, 5] was 43 mmHg, the “Pendinsp (end-inspiratory pressure)” value [1, 5] was 22 cmH2O and the “RR (respiratory rate)” value [1, 5] was 34 min⁻¹. For the same substance, the “CO (cardiac output)” value [1, 6] was 3.7 L/min, the “CVP (central venous pressure)” value [1, 6] was 13 mmHg and the “EVLW (extravascular lung water content)” value [1, 6] was 13 mL/kg. For the same substance, the “MAP (mean arterial pressure)” value [1, 6] was 66 mmHg, the “MPAP (mean pulmonary arterial pressure)” value [1, 6] was 30 mmHg and the “NA (noradrenaline dosage required for hemodynamic stability)” value [1, 6] was 0.8 µg/kg/min. For the same substance, the “PaCO2” value [1, 6] was 43 mmHg, the “Pendinsp (end-inspiratory pressure)” value [1, 6] was 19 cmH2O and the “RR (respiratory rate)” value [1, 6] was 32 min⁻¹. For the same substance, the “CO (cardiac output)” value [1, 7] was 4.5 L/min, the “CVP (central venous pressure)” value [1, 7] was 11 mmHg and the “EVLW (extravascular lung water content)” value [1, 7] was 10 mL/kg. The “MAP (mean arterial pressure)” value [1, 7] was 90 mmHg, the “MPAP (mean pulmonary arterial pressure)” value [1, 7] was 22 mmHg and the “NA (noradrenaline dosage required for hemodynamic stability)” value [1, 7] was 0 µg/kg/min. The “PaCO2” value [1, 7] was 45 mmHg, the “RR (respiratory rate)” value [1, 7] was 29 min⁻¹ and the “Pendinsp (end-inspiratory pressure)” value ([1]; Baseline, healthy state before LPS and inhalation) was 14 cmH2O. For the same substance, the “CO (cardiac output)” value [1, 8] was 4.5 L/min, the “CVP (central venous pressure)” value [1, 8] was 10 mmHg and the “EVLW (extravascular lung water content)” value [1, 8] was 11 mL/kg. For the same substance, the “MAP (mean arterial pressure)” value [1, 8] was 100 mmHg, the “MPAP (mean pulmonary arterial pressure)” value [1, 8] was 23 mmHg and the “NA (noradrenaline dosage required for hemodynamic stability)” value [1, 8] was 0 µg/kg/min. The “PaCO2” value [1, 8] was 35 mmHg, the “Pendinsp (end-inspiratory pressure)” value [1, 8] was 22 cmH2O and the “RR (respiratory rate)” value [1, 8] was 9 min⁻¹. For the same substance, the “Raw (airway resistance)” value ([1]; pig, in vivo) was 10 cmH2O L^−1s^−1 and 12 cmH2O L^−1s^−1 and 11 cmH2O L^−1s^−1, the intrapulmonary inflammatory response ([2]; at 6 hours post insult, peptide inhalation, LPS-induced lung injury in pigs) was “significantly reduced” and the “intrapulmonary overall mRNA expression of COX-2” value ([2]; vs CTRL, p=0.003, lung tissue at 6 h, 1 mg kg^−1 inhaled at zero and three hours) was “significantly lower”. For the same substance, the intrapulmonary tenascin-c expression ([2]; vs CTRL, p=0.015, lung tissue at 6 h, 1 mg kg^−1 inhaled at zero and three hours) was “decreased”, the “intrapulmonary overall mRNA expression of TNF-α” value ([2]; vs CTRL, p=0.041, lung tissue at 6 h, 1 mg kg^−1 inhaled at zero and three hours) was “significantly lower” and the “intrapulmonary overall mRNA expression of IL-6” value ([2]; vs CTRL, p=0.043, lung tissue at 6 h, 1 mg kg^−1 inhaled at zero and three hours) was “significantly lower”. For the same substance, the “intrapulmonary mRNA expression of IL-1β” value [2, 9] was “less differences”, the “intrapulmonary mRNA expression of iNOS” value [2, 9] was “less differences” and the “plasma level of IL-6” value [3] was “less affected”. The “plasma level of TNF-α” value [3] was “less affected”, the “hemorrhage, histopathological score” value ([4]; dependent lung regions) was 0.1 (0.8) and the “alveolar edema, histopathological score” value ([4]; dependent lung regions) was 0 (0.1). For the same substance, the “epithelial destruction, histopathological score” value ([4]; dependent lung regions) was 0 (0), the “inflammatory infiltration, histopathological score” value ([4]; dependent lung regions) was 3.4 (1.6) and the “interstitial edema, histopathological score” value ([4]; dependent lung regions) was 1.3 (0;8). For the same substance, the “microatelectasis, histopathological score” value ([4]; dependent lung regions) was 3.8 (2.4), the “overdistension, histopathological score” value ([4]; dependent lung regions) was 3.5 (1.7) and the “pulmonary wet to dry ratio (W/D)” value ([4]; left lung, vs CTRL Group (2), trend) was “higher”. For the same substance, the “hemorrhage, histopathological score” value ([4]; non-dependent lung regions) was 0 (0), the “alveolar edema, histopathological score” value ([4]; non-dependent lung regions) was 0 (0) and the “epithelial destruction, histopathological score” value ([4]; non-dependent lung regions) was 0 (0). The “inflammatory infiltration, histopathological score” value ([4]; non-dependent lung regions) was 3.8 (1.4), the “interstitial edema, histopathological score” value ([4]; non-dependent lung regions) was 0.9 (1.1) and the “microatelectasis, histopathological score” value ([4]; non-dependent lung regions) was 3.8 (1.4). The “overdistension, histopathological score” value ([4]; non-dependent lung regions) was 4.1 (0.9) and the “post-mortem macroscopic and histologic lung injury” value ([4]; vs CTRL Group (2), sustained lung injury in both groups) was “trend towards a less pronounced damage”.
